In assay [1] the target is T1, SIK1 kinase (aa1-303, Thermo Fisher) (Homo sapiens, UniProt P57059).
T1 construct: SIK1 kinase (aa1-303, Thermo Fisher); purchased Thermo Fisher
Kind of assay: Biochemical activities determination for SIK1 protein (TR-FRET). The settings on record: 110 uM ATP, 0.5 μM STK1 substrate. The gist of the method:
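TR-FRET kinase assay with SIK1 (aa1-303), 110 uM ATP, 0.5 μM STK1 substrate and 0-10 μM compound in Tris pH 7.5 with MgCl2, EGTA, DTT, Triton X-100. Enzyme preincubated with compound 60 min, reaction 180 min at room temperature; 665/620 nm ratio after overnight detection; IC50 from four-parameter logistic fit.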
For orientation: TR-FRET usually uses a lanthanide donor and a delayed reading to cut background.

Assay [2] addresses T2, SIK2 kinase (full length, Thermo Fisher) (Homo sapiens, UniProt Q9H0K1).
T2 construct: SIK2 kinase (full length, Thermo Fisher); purchased Thermo Fisher
Kind of assay: Biochemical activities determination for SIK2 protein (TR-FRET). As to conditions: 80 uM ATP, 0.5 μM substrate. The method in brief:
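Full-length SIK2 preincubated 60 min with 0–10 μM compound, then reacted 180 min at room temperature with 80 uM ATP and 0.5 μM biotinylated substrate (pH 7.5 Tris/MgCl2 buffer). Phosphorylation detected by TR-FRET (665/620 nm ratio, cryptate antibody/streptavidin-XL665) after overnight incubation; IC50 from four-parameter logistic fit.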

Assay [3] deals with T3, SIK3 kinase (aa59-365, Thermo Fisher) (Homo sapiens, UniProt Q9Y2K2).
T3 construct: SIK3 kinase (aa59-365, Thermo Fisher); purchased Thermo Fisher
T3 sequence (Q9Y2K2 59-365): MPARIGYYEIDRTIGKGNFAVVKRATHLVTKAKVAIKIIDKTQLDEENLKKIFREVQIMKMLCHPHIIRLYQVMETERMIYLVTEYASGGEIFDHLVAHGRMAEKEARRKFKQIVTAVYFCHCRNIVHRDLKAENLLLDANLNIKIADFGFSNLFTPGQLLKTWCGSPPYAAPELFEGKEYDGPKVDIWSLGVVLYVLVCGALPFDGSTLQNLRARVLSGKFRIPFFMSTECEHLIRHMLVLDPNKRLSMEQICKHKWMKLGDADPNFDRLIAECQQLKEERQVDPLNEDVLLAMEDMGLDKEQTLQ
Kind of assay: Biochemical activities determination for SIK3 protein (TR-FRET). As to conditions: 125 uM ATP, 0.5 μM STK1 substrate. The method in brief: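 SIK3 (aa59-365) was preincubated with compound (0-10 μM) for 60 min at room temperature in Tris buffer pH 7.5. The reaction was then started with 125 uM ATP and 0.5 μM STK1 substrate and run 180 min at room temperature. Phospho-substrate was detected by HTRF (665/620 nm ratio), and IC50 came from a four-parameter logistic fit.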

SMILES strings stand for the structures.

T2 sequence (Q9H0K1 whole entry): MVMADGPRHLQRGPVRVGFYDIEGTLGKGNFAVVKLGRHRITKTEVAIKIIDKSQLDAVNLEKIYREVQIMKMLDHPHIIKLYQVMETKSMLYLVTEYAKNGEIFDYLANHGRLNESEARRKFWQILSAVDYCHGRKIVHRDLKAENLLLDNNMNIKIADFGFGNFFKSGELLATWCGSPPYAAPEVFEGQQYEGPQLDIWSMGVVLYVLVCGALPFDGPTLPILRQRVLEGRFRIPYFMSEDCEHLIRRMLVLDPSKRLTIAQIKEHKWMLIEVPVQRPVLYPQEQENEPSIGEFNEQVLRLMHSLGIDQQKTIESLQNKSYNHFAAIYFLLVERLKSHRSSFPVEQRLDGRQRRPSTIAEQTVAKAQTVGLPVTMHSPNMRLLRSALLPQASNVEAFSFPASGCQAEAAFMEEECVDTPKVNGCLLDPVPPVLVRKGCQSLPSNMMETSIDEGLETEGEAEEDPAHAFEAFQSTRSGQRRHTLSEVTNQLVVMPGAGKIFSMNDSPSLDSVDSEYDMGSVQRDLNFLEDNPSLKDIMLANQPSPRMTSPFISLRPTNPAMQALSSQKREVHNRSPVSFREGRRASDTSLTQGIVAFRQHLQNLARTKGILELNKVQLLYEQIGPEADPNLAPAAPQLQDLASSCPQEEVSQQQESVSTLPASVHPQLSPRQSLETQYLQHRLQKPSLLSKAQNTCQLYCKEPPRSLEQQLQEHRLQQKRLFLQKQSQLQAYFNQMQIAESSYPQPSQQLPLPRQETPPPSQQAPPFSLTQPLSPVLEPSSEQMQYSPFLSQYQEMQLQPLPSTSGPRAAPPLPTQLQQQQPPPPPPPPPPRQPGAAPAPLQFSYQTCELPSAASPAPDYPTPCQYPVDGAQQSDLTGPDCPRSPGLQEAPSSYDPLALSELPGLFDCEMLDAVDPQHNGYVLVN
T1 sequence (P57059 1-303): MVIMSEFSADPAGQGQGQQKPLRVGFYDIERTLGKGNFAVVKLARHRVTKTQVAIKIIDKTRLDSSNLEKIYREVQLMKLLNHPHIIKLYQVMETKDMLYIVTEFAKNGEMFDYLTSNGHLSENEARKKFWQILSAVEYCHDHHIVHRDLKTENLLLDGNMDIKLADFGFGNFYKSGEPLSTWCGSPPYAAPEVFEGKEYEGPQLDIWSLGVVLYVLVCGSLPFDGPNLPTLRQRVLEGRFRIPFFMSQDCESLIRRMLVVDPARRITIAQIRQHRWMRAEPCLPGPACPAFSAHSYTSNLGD

For orientation: IC50 means the point on the concentration scale where inhibition reaches its midpoint. For the compound `COc1cc(-c2coc3cc(OCCN4CCCC4C(F)(F)F)ccc23)cc(OC(F)F)c1C(=O)N[C@@H]1C[C@@H]1F` (stereo partly drawn) [Compound 95, 2-(difluoromethoxy)-N-((1R,2S)-2-fluorocyclopropyl)-6-methoxy-4-(6-(2-(2-(trifluoromethyl)pyrrolidin-1-yl)ethoxy)benzofuran-3-yl)benzamide], the IC50 in assay [1] is more than 10000 nM; in assay [2], 507 nM; in assay [3] it was 117 nM.
On to `CC[C@H]1CCN(CCOc2ccc3c(-c4cc(OC)c(C(=O)N[C@@H]5C[C@@H]5F)c(OC(F)F)c4)coc3c2)C1` [Compound 96, 2-(difluoromethoxy)-4-(6-(2-((S)-3-ethylpyrrolidin-1-yl)ethoxy)benzofuran-3-yl)-N-((1R,2S)-2-fluorocyclopropyl)-6-methoxybenzamide], for which the IC50 was 2040 nM in assay [1], 22 nM in assay [2] and 43 nM in assay [3].
On to `COc1cc(-c2coc3cc(OCCN4CCCC4)ccc23)cc(OC(F)F)c1C(=O)N[C@@H]1C[C@H]1F` [Compound 97, 2-(difluoromethoxy)-N-((1R,2R)-2-fluorocyclopropyl)-6-methoxy-4-(6-(2-(pyrrolidin-1-yl)ethoxy)benzofuran-3-yl)benzamide], for which the IC50 in assay [1] was determined as 8350 nM; in assay [2], 85 nM; in assay [3] it was 289 nM.
`COc1cc(-c2coc3cc(OCCN4CCCC4)ccc23)cc(OC(F)F)c1C(=O)N[C@H]1C[C@H]1F` [Compound 98, 2-(difluoromethoxy)-N-((1S,2R)-2-fluorocyclopropyl)-6-methoxy-4-(6-(2-(pyrrolidin-1-yl)ethoxy)benzofuran-3-yl)benzamide]: the IC50 in assay [1] is more than 10000 nM; in assay [2], 128 nM; in assay [3] it was 525 nM.
`COc1cc(-c2coc3cc(OCCN4CCCC4)ccc23)cc(OC(F)F)c1C(=O)N[C@H]1C[C@@H]1F` [Compound 99, 2-(difluoromethoxy)-N-((1S,2S)-2-fluorocyclopropyl)-6-methoxy-4-(6-(2-(pyrrolidin-1-yl)ethoxy)benzofuran-3-yl)benzamide]: the IC50 in assay [1] was more than 10000 nM; in assay [2] it was 269 nM; in assay [3] it was 759 nM.
On to `COc1cc(-c2coc3cc(OCCN4CCCC4)ccc23)cc(OC(F)F)c1C(=O)NC1CC1(F)F` (stereo not drawn) [Compound 100, N-(2,2-difluorocyclopropyl)-2-(difluoromethoxy)-6-methoxy-4-(6-(2-(pyrrolidin-1-yl)ethoxy)benzofuran-3-yl)benzamide], for which the figures for the IC50 in assay [1], in assay [2] and in assay [3] were 3590 nM, 31 nM and 80 nM, respectively.
For the compound `O=C(NC1CC1)c1c(OC(F)F)cc(-c2coc3cc(OCCN4CCCC4)ccc23)cc1O[C@H]1CC[C@H](O)CC1` [Compound 101, N-cyclopropyl-2-(difluoromethoxy)-6-(((1r,4r)-4-hydroxycyclohexyl)oxy)-4-(6-(2-(pyrrolidin-1-yl)ethoxy)benzofuran-3-yl)benzamide], the IC50 in assay [1] was more than 10000 nM; in assay [2] it was 8970 nM; in assay [3] it was more than 10000 nM.
As to `O=C(NC1CC1)c1c(OC(F)F)cc(-c2coc3cc(OCCN4CCCC4)ccc23)cc1O[C@H]1CC[C@@H](O)CC1` [Compound 102, N-cyclopropyl-2-(difluoromethoxy)-6-(((1s,4s)-4-hydroxycyclohexyl)oxy)-4-(6-(2-(pyrrolidin-1-yl)ethoxy)benzofuran-3-yl)benzamide], the IC50 in assay [1] was more than 10000 nM; in assay [2], 2480 nM; in assay [3], more than 10000 nM.
Turning to `O=C(NC1CC1)c1c(OCCO)cc(-c2coc3cc(OCCN4CCCC4)ccc23)cc1OC(F)F` [Compound 103, N-cyclopropyl-2-(difluoromethoxy)-6-(2-hydroxyethoxy)-4-(6-(2-(pyrrolidin-1-yl)ethoxy)benzofuran-3-yl)benzamide], the IC50 in assay [1] stood at 9500 nM; in assay [2], 114 nM; in assay [3] it was 410 nM.
For `O=C(NC1CC1)c1c(NCCO)cc(-c2coc3cc(OCCN4CCCC4)ccc23)cc1OC(F)F` [Compound 104, N-cyclopropyl-2-(difluoromethoxy)-6-((2-hydroxyethyl)amino)-4-(6-(2-(pyrrolidin-1-yl)ethoxy)benzofuran-3-yl)benzamide], in that order: 4580 nM, 52 nM and 211 nM.
Take `O=C(NC1CC1)c1c(F)cc(-c2coc3cc(OCCN4CCCC4)ccc23)cc1OC(F)F` [Compound 105, N-cyclopropyl-2-(difluoromethoxy)-6-fluoro-4-(6-(2-(pyrrolidin-1-yl)ethoxy)benzofuran-3-yl)benzamide]: the IC50 was more than 10000 nM in assay [1], 398 nM in assay [2] and 1770 nM in assay [3].
For `CN1CC(Oc2cc(-c3coc4cc(OCCN5CCCC5)ccc34)cc(OC(F)F)c2C(=O)NC2CC2)C1` [Compound 106, N-cyclopropyl-2-(difluoromethoxy)-6-((1-methylazetidin-3-yl)oxy)-4-(6-(2-(pyrrolidin-1-yl)ethoxy)benzofuran-3-yl)benzamide], the IC50 was more than 10000 nM in assay [1], 2960 nM in assay [2] and more than 10000 nM in assay [3].
As for `CN1CCC[C@@H]1COc1cc(-c2coc3cc(OCCN4CCCC4)ccc23)cc(OC(F)F)c1C(=O)NC1CC1` [Compound 107, (R)—N-cyclopropyl-2-(difluoromethoxy)-6-((1-methylpyrrolidin-2-yl)methoxy)-4-(6-(2-(pyrrolidin-1-yl)ethoxy)benzofuran-3-yl)benzamide], the values for the IC50 in assay [1], in assay [2] and in assay [3] were more than 10000 nM, 5610 nM and more than 10000 nM, respectively.
Consider `CC(C)(O)COc1cc(-c2coc3cc(OCCN4CCCC4)ccc23)cc(OC(F)F)c1C(=O)NC1CC1` [Compound 108, N-cyclopropyl-2-(difluoromethoxy)-6-(2-hydroxy-2-methylpropoxy)-4-(6-(2-(pyrrolidin-1-yl)ethoxy)benzofuran-3-yl)benzamide], for which the IC50 in assay [1] is more than 10000 nM; in assay [2] it was 2780 nM; in assay [3], more than 10000 nM.
In the case of `NC1CC(Oc2cc(-c3coc4cc(OCCN5CCCC5)ccc34)cc(OC(F)F)c2C(=O)NC2CC2)C1` (stereo not drawn) [Compound 109, 2-(3-aminocyclobutoxy)-N-cyclopropyl-6-(difluoromethoxy)-4-(6-(2-(pyrrolidin-1-yl)ethoxy)benzofuran-3-yl)benzamide], the IC50 is more than 10000 nM in assay [1], 329 nM in assay [2] and 2520 nM in assay [3].
For `CN1CC[C@@H](Oc2cc(-c3coc4cc(OCCN5CCCC5)ccc34)cc(OC(F)F)c2C(=O)NC2CC2)C1` [Compound 110, (R)—N-cyclopropyl-2-(difluoromethoxy)-6-((1-methylpyrrolidin-3-yl)oxy)-4-(6-(2-(pyrrolidin-1-yl)ethoxy)benzofuran-3-yl)benzamide], in that order: more than 10000 nM, 3850 nM and more than 10000 nM.
For `CN1CC[C@H](Oc2cc(-c3coc4cc(OCCN5CCCC5)ccc34)cc(OC(F)F)c2C(=O)NC2CC2)C1` [Compound 111, (S)—N-cyclopropyl-2-(difluoromethoxy)-6-((1-methylpyrrolidin-3-yl)oxy)-4-(6-(2-(pyrrolidin-1-yl)ethoxy)benzofuran-3-yl)benzamide], in that order: more than 10000 nM, 1190 nM and 5700 nM.
